{"source": "the OligoGym collection", "target": "UBE3A-ATS", "assay": "mouse, dose not given", "settings": "ASO", "note": "HELM strings list units from the 5' end as sugar, base in round brackets, then linkage (d deoxyribose, r ribose, m 2'-O-methyl, p phosphodiester). Strings are as the collection lists them; they lack the last nucleoside at the 3' end of the tested compound. [moe] = 2'-O-(2-methoxyethyl) (MOE); [sp] = phosphorothioate linkage; [m5C] = 5-methylcytosine", "data": [{"substance": "RNA1{[moe](G)[sp].[moe](A)p.[moe](T)p.[moe](T)p.[moe](G)p.d(A)[sp].d([m5C])[sp].d(T)[sp].d(A)[sp].d([m5C])[sp].d(T)[sp].d(T)[sp].d([m5C])[sp].d(A)[sp].d(A)[sp].[moe]([m5C])p.[moe]([m5C])p.[moe](T)[sp].[moe](G)}$$$$ (last 3' nucleoside missing)", "values": [{"measurement": "3 h FOB score", "value": 1.3, "unit": "score 0-7"}]}, {"substance": "RNA1{[moe](T)[sp].[moe](G)p.[moe](A)p.[moe](T)[sp].d([m5C])[sp].d(A)[sp].d([m5C])[sp].d(A)[sp].d(T)[sp].d(T)[sp].d(A)[sp].d([m5C])[sp].[moe]([m5C])p.[moe]([m5C])p.[moe](A)p.[moe](T)[sp].[moe]([m5C])}$$$$ (last 3' nucleoside missing)", "values": [{"measurement": "3 h FOB score", "value": 0, "unit": "score 0-7"}]}, {"substance": "RNA1{[moe]([m5C])[sp].[moe](T)p.[moe](G)p.[moe]([m5C])p.[moe](T)p.d([m5C])[sp].d(A)[sp].d(G)[sp].d(T)[sp].d(T)[sp].d(A)[sp].d(G)[sp].d(G)[sp].d(T)[sp].d(T)[sp].[moe](A)p.[moe](G)p.[moe](T)[sp].[moe](G)}$$$$ (last 3' nucleoside missing)", "values": [{"measurement": "3 h FOB score", "value": 3.3, "unit": "score 0-7"}]}, {"substance": "RNA1{[moe](G)[sp].[moe](G)p.[moe](T)p.[moe]([m5C])p.[moe](A)p.d(A)[sp].d([m5C])[sp].d([m5C])[sp].d(A)[sp].d(A)[sp].d(T)[sp].d(T)[sp].d(T)[sp].d(G)[sp].d([m5C])[sp].[moe](T)p.[moe](A)p.[moe](T)[sp].[moe](T)}$$$$ (last 3' nucleoside missing)", "values": [{"measurement": "3 h FOB score", "value": 3.8, "unit": "score 0-7"}]}, {"substance": "RNA1{[moe](G)[sp].[moe](G)p.[moe](G)p.[moe](A)p.[moe](T)p.d(T)[sp].d(T)[sp].d(A)[sp].d([m5C])[sp].d([m5C])[sp].d([m5C])[sp].d(A)[sp].d(T)[sp].d(T)[sp].d(G)[sp].[moe]([m5C])p.[moe](A)p.[moe](A)[sp].[moe](G)}$$$$ (last 3' nucleoside missing)", "values": [{"measurement": "3 h FOB score", "value": 1, "unit": "score 0-7"}]}, {"substance": "RNA1{[moe](A)[sp].[moe]([m5C])p.[moe](G)p.[moe]([m5C])p.[moe](A)[sp].d(A)[sp].d(T)[sp].d(G)[sp].d(T)[sp].d(A)[sp].d(T)[sp].d([m5C])[sp].d(A)[sp].[moe](G)p.[moe](G)p.[moe]([m5C])[sp].[moe](A)}$$$$ (last 3' nucleoside missing)", "values": [{"measurement": "3 h FOB score", "value": 2.3, "unit": "score 0-7"}]}, {"substance": "RNA1{[moe](G)[sp].[moe](T)p.[moe](G)p.[moe](T)p.[moe](T)p.d(T)[sp].d(A)[sp].d(T)[sp].d([m5C])[sp].d([m5C])[sp].d(A)[sp].d(A)[sp].d(A)[sp].d([m5C])[sp].d([m5C])[sp].[moe](A)p.[moe](A)p.[moe](G)[sp].[moe](G)}$$$$ (last 3' nucleoside missing)", "values": [{"measurement": "3 h FOB score", "value": 3, "unit": "score 0-7"}]}, {"substance": "RNA1{[moe](T)[sp].[moe](G)p.[moe]([m5C])p.[moe](A)[sp].d(T)[sp].d(A)[sp].d([m5C])[sp].d([m5C])[sp].d([m5C])[sp].d(A)[sp].d(G)[sp].d(G)[sp].[moe](G)p.[moe](T)p.[moe](A)p.[moe](G)[sp].[moe](G)}$$$$ (last 3' nucleoside missing)", "values": [{"measurement": "3 h FOB score", "value": 0, "unit": "score 0-7"}]}, {"substance": "RNA1{[moe](A)[sp].[moe](G)p.[moe](A)p.[moe]([m5C])p.[moe]([m5C])p.d(T)[sp].d(A)[sp].d(T)[sp].d(A)[sp].d(G)[sp].d(G)[sp].d(A)[sp].d([m5C])[sp].d([m5C])[sp].d(T)[sp].[moe]([m5C])p.[moe](A)p.[moe](G)[sp].[moe](G)}$$$$ (last 3' nucleoside missing)", "values": [{"measurement": "3 h FOB score", "value": 4, "unit": "score 0-7"}]}, {"substance": "RNA1{[moe](G)[sp].[moe]([m5C])p.[moe](T)p.[moe](G)p.[moe](A)p.d(T)[sp].d([m5C])[sp].d(A)[sp].d([m5C])[sp].d(A)[sp].d(T)[sp].d(T)[sp].d(A)[sp].d([m5C])[sp].d([m5C])[sp].[moe]([m5C])p.[moe](A)p.[moe](T)[sp].[moe]([m5C])}$$$$ (last 3' nucleoside missing)", "values": [{"measurement": "3 h FOB score", "value": 0, "unit": "score 0-7"}]}, {"substance": "RNA1{[moe](G)[sp].[moe](T)p.[moe](G)p.[moe](A)p.[moe](G)p.[moe]([m5C])p.d(T)[sp].d(A)[sp].d(T)[sp].d([m5C])[sp].d(T)[sp].d(G)[sp].d(T)[sp].d(A)[sp].d([m5C])[sp].d(A)[sp].[moe](A)p.[moe](A)[sp].[moe](A)}$$$$ (last 3' nucleoside missing)", "values": [{"measurement": "3 h FOB score", "value": 1.3, "unit": "score 0-7"}]}, {"substance": "RNA1{[moe](G)[sp].[moe](T)p.[moe]([m5C])p.[moe](A)p.[moe](T)p.d([m5C])[sp].d(T)[sp].d([m5C])[sp].d(G)[sp].d(G)[sp].d(G)[sp].d(T)[sp].d(A)[sp].d(T)[sp].d(A)[sp].[moe](T)p.[moe](A)p.[moe](A)[sp].[moe](A)}$$$$ (last 3' nucleoside missing)", "values": [{"measurement": "3 h FOB score", "value": 5.5, "unit": "score 0-7"}]}, {"substance": "RNA1{[moe]([m5C])[sp].[moe](T)p.[moe](T)p.[moe](G)p.[moe](A)p.d(T)[sp].d(G)[sp].d(G)[sp].d([m5C])[sp].d(T)[sp].d(G)[sp].d(T)[sp].d(A)[sp].d(G)[sp].d([m5C])[sp].[moe](T)p.[moe](T)p.[moe](G)[sp].[moe](G)}$$$$ (last 3' nucleoside missing)", "values": [{"measurement": "3 h FOB score", "value": 5, "unit": "score 0-7"}]}, {"substance": "RNA1{[moe](T)[sp].[moe](T)p.[moe](G)p.[moe](G)p.[moe]([m5C])p.d(A)[sp].d([m5C])[sp].d(A)[sp].d([m5C])[sp].d([m5C])[sp].d(T)[sp].d(G)[sp].d(G)[sp].d(A)[sp].d(T)[sp].[moe](T)p.[moe](T)p.[moe]([m5C])[sp].[moe](A)}$$$$ (last 3' nucleoside missing)", "values": [{"measurement": "3 h FOB score", "value": 2, "unit": "score 0-7"}]}, {"substance": "RNA1{[moe](G)[sp].[moe]([m5C])p.[moe](T)p.[moe](G)p.[moe](T)p.d(A)[sp].d(A)[sp].d(G)[sp].d(T)[sp].d(A)[sp].d(T)[sp].d(A)[sp].d(G)[sp].d(A)[sp].d(T)[sp].[moe](G)p.[moe]([m5C])p.[moe]([m5C])[sp].[moe](T)}$$$$ (last 3' nucleoside missing)", "values": [{"measurement": "3 h FOB score", "value": 2, "unit": "score 0-7"}]}, {"substance": "RNA1{[moe](T)[sp].[moe](G)p.[moe](A)p.[moe](G)p.[moe]([m5C])[sp].d(T)[sp].d(A)[sp].d(T)[sp].d([m5C])[sp].d(T)[sp].d(G)[sp].d(T)[sp].d(A)[sp].[moe]([m5C])p.[moe](A)p.[moe](A)[sp].[moe](A)}$$$$ (last 3' nucleoside missing)", "values": [{"measurement": "3 h FOB score", "value": 4.7, "unit": "score 0-7"}]}, {"substance": "RNA1{[moe](G)[sp].[moe]([m5C])p.[moe](T)p.[moe](T)p.[moe]([m5C])p.d(A)[sp].d([m5C])[sp].d([m5C])[sp].d(A)[sp].d(T)[sp].d(T)[sp].d(T)[sp].d(T)[sp].d(G)[sp].d(A)[sp].[moe]([m5C])p.[moe]([m5C])p.[moe](T)[sp].[moe](T)}$$$$ (last 3' nucleoside missing)", "values": [{"measurement": "3 h FOB score", "value": 2.2, "unit": "score 0-7"}]}, {"substance": "RNA1{[moe](T)[sp].[moe](G)p.[moe]([m5C])p.[moe](T)p.[moe]([m5C])p.[moe](A)[sp].d(G)[sp].d(T)[sp].d(T)[sp].d(A)[sp].d(G)[sp].d(G)[sp].d(T)[sp].d(T)[sp].[moe](A)p.[moe](G)[sp].[moe](T)}$$$$ (last 3' nucleoside missing)", "values": [{"measurement": "3 h FOB score", "value": 5.7, "unit": "score 0-7"}]}, {"substance": "RNA1{[moe](T)[sp].[moe](T)p.[moe](G)p.[moe](T)p.[moe](A)p.d(G)[sp].d([m5C])[sp].d(T)[sp].d(A)[sp].d(T)[sp].d(A)[sp].d(G)[sp].d(G)[sp].d(T)[sp].d(G)[sp].[moe](T)p.[moe]([m5C])p.[moe](A)[sp].[moe]([m5C])}$$$$ (last 3' nucleoside missing)", "values": [{"measurement": "3 h FOB score", "value": 4, "unit": "score 0-7"}]}, {"substance": "RNA1{[moe]([m5C])[sp].[moe](A)p.[moe](A)p.[moe](T)p.[moe](G)p.d(G)[sp].d(T)[sp].d(T)[sp].d(T)[sp].d(A)[sp].d(G)[sp].d(T)[sp].d(G)[sp].d(T)[sp].d([m5C])[sp].[moe](A)p.[moe](T)p.[moe](A)[sp].[moe](T)}$$$$ (last 3' nucleoside missing)", "values": [{"measurement": "3 h FOB score", "value": 5, "unit": "score 0-7"}]}, {"substance": "RNA1{[moe](G)[sp].[moe](G)p.[moe](G)p.[moe](T)p.[moe](T)p.d(A)[sp].d([m5C])[sp].d(T)[sp].d(T)[sp].d(T)[sp].d([m5C])[sp].d([m5C])[sp].d(A)[sp].d(A)[sp].d(T)[sp].[moe](A)p.[moe](G)p.[moe](A)[sp].[moe](G)}$$$$ (last 3' nucleoside missing)", "values": [{"measurement": "3 h FOB score", "value": 1.5, "unit": "score 0-7"}]}, {"substance": "RNA1{[moe](T)[sp].[moe](G)p.[moe](A)p.[moe](G)p.[moe]([m5C])p.d(T)[sp].d(A)[sp].d(T)[sp].d([m5C])[sp].d(T)[sp].d(G)[sp].d(T)[sp].d(A)[sp].d([m5C])[sp].d(A)[sp].[moe](A)p.[moe](A)p.[moe](A)[sp].[moe](T)}$$$$ (last 3' nucleoside missing)", "values": [{"measurement": "3 h FOB score", "value": 6.2, "unit": "score 0-7"}]}, {"substance": "RNA1{[moe](T)[sp].[moe]([m5C])p.[moe](A)p.[moe](A)[sp].d([m5C])[sp].d([m5C])[sp].d(A)[sp].d(A)[sp].d(T)[sp].d(T)[sp].d(T)[sp].d(G)[sp].[moe]([m5C])p.[moe](T)p.[moe](A)p.[moe](T)[sp].[moe](T)}$$$$ (last 3' nucleoside missing)", "values": [{"measurement": "3 h FOB score", "value": 0.7, "unit": "score 0-7"}]}, {"substance": "RNA1{[moe](G)[sp].[moe](T)p.[moe](G)p.[moe](T)p.d(G)[sp].d(T)[sp].d(T)[sp].d(T)[sp].d(T)[sp].d(T)[sp].d([m5C])[sp].d([m5C])[sp].d(A)[sp].d(T)[sp].[moe](T)p.[moe](T)p.[moe](T)p.[moe](T)[sp].[moe]([m5C])}$$$$ (last 3' nucleoside missing)", "values": [{"measurement": "3 h FOB score", "value": 0, "unit": "score 0-7"}]}, {"substance": "RNA1{[moe](G)[sp].[moe]([m5C])p.[moe](T)p.[moe]([m5C])p.[moe](A)p.d(G)[sp].d(T)[sp].d(T)[sp].d(A)[sp].d(G)[sp].d(G)[sp].d(T)[sp].d(T)[sp].d(A)[sp].d(G)[sp].[moe](T)p.[moe](G)p.[moe]([m5C])[sp].[moe](A)}$$$$ (last 3' nucleoside missing)", "values": [{"measurement": "3 h FOB score", "value": 3.8, "unit": "score 0-7"}]}, {"substance": "RNA1{[moe](G)[sp].[moe]([m5C])p.[moe](A)p.[moe](A)p.[moe](T)p.d(G)[sp].d(G)[sp].d(A)[sp].d([m5C])[sp].d(T)[sp].d(T)[sp].d(A)[sp].d(G)[sp].d(T)[sp].d(A)[sp].[moe]([m5C])p.[moe](A)p.[moe]([m5C])[sp].[moe](A)}$$$$ (last 3' nucleoside missing)", "values": [{"measurement": "3 h FOB score", "value": 1, "unit": "score 0-7"}]}, {"substance": "RNA1{[moe](G)[sp].[moe](T)p.[moe](A)p.[moe](A)p.[moe](G)p.d(T)[sp].d(A)[sp].d(T)[sp].d(A)[sp].d(G)[sp].d(A)[sp].d(T)[sp].d(G)[sp].d([m5C])[sp].d([m5C])[sp].[moe](T)p.[moe]([m5C])p.[moe](T)[sp].[moe]([m5C])}$$$$ (last 3' nucleoside missing)", "values": [{"measurement": "3 h FOB score", "value": 3.8, "unit": "score 0-7"}]}]}
